In paper PMC10499049, “Characterization of norbelladine synthase and noroxomaritidine/norcraugsodine reductase reveals a novel catalytic route for the biosynthesis of Amaryllidaceae alkaloids including the Alzheimer’s drug galanthamine” (Frontiers in Plant Science, 2023):

Assays:
LaNR = target: T1, LaNR (Leucojum aestivum, UniProt Z9Z857OJM6); test: HPLC-MS/MS of norbelladine formed, with and without NADPH; assay type: biochemical; conditions: […] NADPH; […] tyramine, […],4-DHBA; […] sodium citrate pH […]; […] C; […] h
T1 construct: full-length 269 aa (29 kDa), N-terminal MBP fusion (pMAL-c2x), tag kept, E. coli Rosetta (DE3) pLysS
T1 sequence (Z9Z857OJM6 1-271): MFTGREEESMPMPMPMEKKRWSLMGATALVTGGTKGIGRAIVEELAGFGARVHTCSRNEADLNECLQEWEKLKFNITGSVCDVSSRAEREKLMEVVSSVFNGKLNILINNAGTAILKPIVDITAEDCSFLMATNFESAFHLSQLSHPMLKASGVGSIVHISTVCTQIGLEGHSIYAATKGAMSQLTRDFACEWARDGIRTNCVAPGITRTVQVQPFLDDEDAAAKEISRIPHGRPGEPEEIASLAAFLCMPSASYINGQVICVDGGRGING

NpNR = target: T2, NpNR (Narcissus papyraceus, UniProt A0A346TLF8); test: as above; assay type: biochemical; conditions: 1 mM NADPH; 10 uM tyramine, 300 uM 3,4-DHBA; 100 mM sodium citrate pH 6.0; 35 C; 2 h
T2 construct: gene NorRed1; full-length 269 aa (29 kDa), N-terminal MBP fusion (pMAL-c2x), tag kept, E. coli Rosetta (DE3) pLysS
T2 sequence (A0A346TLF8 1-269): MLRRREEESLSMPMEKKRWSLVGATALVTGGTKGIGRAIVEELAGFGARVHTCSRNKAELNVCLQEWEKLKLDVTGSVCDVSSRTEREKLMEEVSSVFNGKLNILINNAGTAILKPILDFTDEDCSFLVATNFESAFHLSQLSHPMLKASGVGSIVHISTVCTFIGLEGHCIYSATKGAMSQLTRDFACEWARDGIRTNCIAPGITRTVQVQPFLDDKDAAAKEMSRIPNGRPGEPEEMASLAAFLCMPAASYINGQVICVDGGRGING

[1] = target: N. papyraceus noroxomaritidine/norcraugsodine reductase, yeast two-hybrid fusions (Narcissus papyraceus)
Chain of N. papyraceus noroxomaritidine/norcraugsodine reductase, yeast two-hybrid fusions (Narcissus papyraceus) (A0A346TLF8 entry or part of it): as the sequence (A0A346TLF8 1-269) above

Molecule	HPLC-MS/MS of norbelladine formed, with and without NADPH (LaNR)	HPLC-MS/MS of norbelladine formed, with and without NADPH (NpNR)	norbelladine produced by yeast cultures co-expressing NpNBS and NpNR, fed with tyramine and 3,4-DHBA (HPLC-MS/MS, peak area relative to papaverine); none detected with either enzyme alone (relative peak area ratio) [1]
NC(=O)C1=CN([C@@H]2O[C@H](COP(=O)(O)OP(=O)(O)OC[C@H]3O[C@@H](n4cnc5c(N)ncnc54)[C@H](OP(=O)(O)O)[C@@H]3O)[C@@H](O)[C@H]2O)C=CC1 [NADPH]	NR assays lacking NADPH resulted in no norbelladine production	NR assays lacking NADPH resulted in no norbelladine production	–
N. papyraceus norbelladine synthase, yeast two-hybrid fusions (enzyme)	–	–	0.22
